Source: patent US5859207A (priority 1996, dated 1999)

What was measured:
[1] = tested on: Human peripheral blood mononuclear cells (PBMC)
[2] = tested on: human monocytes; format: binding
[3] = tested on: Human peripheral blood mononuclear cells (PBMC); format: cell-based

Substance	concentration at which native SEA is effective (TNFα induction) [1]	cytotoxic activity neutralized by anti-TNFα antibody [1]	inhibition of biotinylated SEA(121-149) binding to monocytes [2]	IL-1 activity [3]	TNFα production [1]	TNFα production by monocytes depleted of T cells [1]	induction of TNFα production (in words) [1]
staphylococcal enterotoxin A [SEA]	0.1 to 1 nM	63%	specifically inhibited	875±5 units/ml			
toxic shock syndrome toxin one [TSST-1]		76%			99 units/ml	approximately 25 units TNFα/ml	induced significant TNFα production
